Three substances from patent US8778886B2, “Methods of making and using a cell penetrating peptide for enhanced delivery of nucleic acids, proteins, drugs, and adenovirus to tissues and cells, and compositions and kits” (Tufts University, priority 2007, dated 2014) can be followed below.

In one data set the test system is E. coli. The experiment in a line: Microbicidal activity, colony count after plating. The conditions noted are these: 2 hours at 37° C., plating on LB agar. Format: cell-based. The method, then: Lissamine conjugated POD (L-POD) and either heparan sulfate or chondroitan sulfate were incubated together at each of molar ratios of 1:3.33, 1:6.67, and 1:8 in water for 30 minutes at room temperature. The complex was diluted in DMEM+2% FBS and added to 0.2×]06 HER cells for 5 minutes at 37° C. Following incubation, cells were trypsinized and suspended in PBS for FACS analysis as described above. To measure microbicidal activity of C-POD, XL-1 Blue cells (Stratagene, La Jolla, Calif.) were grown to mid logarithmic phase (OD600=0.600) and washed twice in a solution of 10 mM Tris, pH 7.4 and 5 mM Glucose. The cells were resuspended in 10 mL of the same solution and […] of the suspension was incubated with C-POD in a final volume of 50 μL. The peptide/bacteria cell solution was rocked for 2 hours at 37° C. The peptide-treated bacteria was diluted 1:4500 with LB broth, plated on agar, and grown overnight at 37° C. The following day, the bacterial colonies on each plate were counted to quantify peptide-related reduction in growth.
Since endophthalmitis, an infection within the eye, is regularly a complicating factor in drug delivery to ocular tissues [Ho J et al. 2007 Int Opthalmol Clin 47: 199-208], C-POD was examined for potential microbicidal activities. E. coli cells grown to mid-log phase were incubated with either H20 only or C-POD suspended in H20 at concentrations ranging from 0.03 μM to 60 μM, and cell number was determined by plating samples on LB agar. […] Greater concentrations of C-POD completely eliminated bacterial growth.

In data set [1] the test system is HER cells. Nature of the data set: C-POD delivery of siRNA, silencing of GFP expression. The conditions noted are these: pEGFP delivered by C-POD, no siRNA. Format: cell-based, human. As to the method:
pCAGRFP was compacted with C-POD at a ratio of 400 peptide/plasmid molecules. Briefly, 2 μg of DNA and the appropriate concentration of peptide were each suspended in 15 μL of either 100 μM sodium phosphate or 5% dextrose buffer. The peptide and DNA solutions were mixed and incubated for 30 minutes at room temperature prior to addition to HER cells. After 48 hours, cells were resuspended in PBS for FACS analysis. For electron microscopy, peptide/DNA complexes were prepared as above. Particles were bound to glow-discharged copper grids, stained with urinyl acetate, and visualized on a CMIO Transmission Electron Microscope (Philips) using Digital Micrograph software (Gatan, Inc). C-POD was used to compact both pd2-EGFP-NI and GFP Duplex I at concentrations of 450 particles/DNA molecule and 25 particles/duplex molecule, respectively, in 100 mM sodium phosphate buffer using the same procedures described above. Compacted pd2-EGFP-NI DNA, 2 μg, and 70 pmoles of GFP Duplex I diluted in DMEM+2% FBS were added simultaneously to HER cells for 4 hours. Growing medium was then added to cells and the incubation continued for 44 additional hours. […] The amount of fluorescence resulting from the Qdot-peptide complex was determined using a fluorometer and an equivalent amount of unbound Strep-Qdot was added separately as control. […] Uptake of Qdots was determined by fluorescent microscopy as described above. […]

In the next data set the test system is retina. Nature of the data set: Subretinal / intravitreal injection of POD-GFP protein in vivo. On the set-up: species or system C57BL/6J mice. The method, then: (§1) Subretinal and intravitreal injections of the fusion proteins were performed using techniques described in Cashman et al. [2006 Invest Opthalmol Vis Sci 47:3496-3504]. Briefly, 8.5 μg of POD-GFP or 6.6 μg of GFP protein was injected into the subretinal or intravitreal space respectively, of 6-8 week old C57BL/6J mice. Four independent injections were performed and yielded nearly identical results. Six hours post-injection, mice were sacrificed by CO2 inhalation and cervical dislocation. For topical delivery of the POD-GFPHis or GFP-His, C57BL/6J mice were anesthetized with xylazine/ketamine and 2 μl containing 40 μg of protein were dropped onto the […] surface. Forty-five minutes following administration, mice were sacrificed as above and eyes enucleated, washed twice in PBS, and fixed overnight in 4% paraformaldehyde. Eyes were embedded in Optimal Cutting Temperature Compound (Sakura Finetek, Torrance, Calif.) and 14 μm sections were collected using a Microm 550 cryostat.
To determine the transduction properties of POD-GFP […] an amount of 8.5 μg of each of purified POD-GFP or control GFP protein was injected into the subretinal space, i.e., between the retinal pigment epithelium (RPE) and photoreceptors, of 6 week-old male C57BL61J mice. Eyes were harvested after 6 hours and frozen sections were examined by fluorescence microscopy.
Purified POD-GFP, 6.6 μg, or that amount of control GFP protein was injected into the intravitreal space, i.e. between the lens and neural retina of 6 week-old male C57BL6/J mice, and eyes were harvested after 6 hours and frozen sections examined by fluorescence microscopy. […] Unlike with subretinal injection, no POD-GFP signal was detectable in the outer nuclear layer or RPE beyond that of background auto-fluorescence and the overall number of GFP-positive cells was less than that achieved by subretinal injection.

Data set [2] concerns HER cells. Nature of the data set: POD-GFP protein transduction in vitro, GFP-positive cells by FACS and localization. The conditions noted are these: for GFP-positive cells: HER, 10 μg protein, 2 hours. The format is cell-based, human. As to the method: (§2) To evaluate cellular penetration of POD fusion proteins, HER cells were seeded on Lab Tek-II chamber slides and incubated with 10 μg of POD-GFP or GFP for two hours. Following fixation, cells were visualized by light and fluorescence microscopy using an Olympus BX51 microscope with differential interference contrast (DIC) and the appropriate fluorescence filters. Images were captured using a Retiga 2000R FAST camera and QCapture Pro 5.0 (QImaging, British Columbia, Canada). To quantitate protein uptake, 0.2×10^6 of either HER or A549 cells were incubated with 10 μg POD-GFP or GFP for 2 hours. Cells were washed with PBS, pelleted and resuspended in PBS for FACS analysis. Cell membrane integrity was evaluated by measuring the percentage of Propidium Iodide (1 μM) positive cells in the presence of fusion protein. FACS analysis of protein uptake and toxicity was performed using a FACSCAlibur (Becton Dickinson, Franklin. Lakes, N.J.) and results analyzed using CellQuest Pro (Becton Dickinson). 10,000 events were counted for each analysis, which was performed in triplicate and repeated at least once.
HER and A549 cells were treated as above for subsequent addition of LysoTracker, ER Tracker (Molecular Probes, Carlsbad, Calif.), or DAPI, and were incubated for one hour. These reagents were removed and cells were fixed with formalin for imaging.
To determine the transduction capabilities of POD-GFP in vitro, each of approximately 0.2×10^6 human lung carcinoma epithelial cells (A549) or HER cells were incubated with 10 μg of each of purified recombinant POD-GFP or control GFP protein for 2 hours and the number of GFP-positive cells were counted by FACS. […] Similarly, 34.2±3.4% and 1.8±0.4%, respectively, of HER cells were GFP-positive when incubated with POD-GFP or GFP, respectively (FIG. 9 panel A).
In contrast to endogenous gene expression, POD-GFP in the Example herein appeared in the cytoplasm of HER cells in a punctate pattern (FIG. 9 panel B), similar to observations in examples above with L-POD peptide and similar to that of an endocytic mechanism of uptake.
(In general: In flow cytometry, cells or beads pass a laser one at a time.)

For data set [3], the system named is human embryonic retinoblast (HER) cells. Nature of the data set: Localization of de novo synthesized POD-GFP after plasmid transfection. Format: cell-based. As to conditions: transfection with pPODGFPHis or pGFPHis. The method, then:
Human embryonic retinoblast (HER) cells were cultured using previously described methods [Fallaux F J et al. 1996 Hum. Gene Ther. 7: 215-222]. Carcinoma human alveolar basal epithelial cells (A549, American Type Culture Collection, Manassas, Va.) were grown to 70-80% confluence in DMEM media supplemented with 10% fetal bovine serum (FBS). All cell culture procedures were performed in DMEM supplemented with 2% FBS. Transfection of plasmids was carried out using 2:1 μL Lipofectamine: μg plasmid in Opti-MEM media. Forty-eight hours post-transfection, the cells were fixed and stained with DAPI, 4′,6-diamidino-2-phenylindole.
Transfection of human embryonic retinoblast (HER) cells [Fallaux F J et al. 1996 Hum. […] Furthermore, POD-GFP appeared to concentrate in sub nuclear compartments (FIG. 7 panel B, arrowheads).

The test system of a further data set is cornea. Nature of the data set: Topical application of POD-GFP to cornea in vivo. Details: species or system C57BL6/J mouse. As to conditions: 40 μg, 45 minutes. As to the method:
as §1, with “Eyes were embedded in Optimal Cutting Temperature Compound (Sakura Finetek, Torrance, Calif.) and 14 μm sections were collected using a Microm 550 cryostat.” left out
To further examine localization of POD-GFP, anterior ocular tissues were dissected and the corneas were flat mounted or cross-sectioned and re-examined by fluorescence microscopy. […] In contrast, GFP-fluorescence was readily detected on both flat mounts and cross sections of corneas from mice that received topical application of POD-GFP (FIG. 12 panel B). […] No GFP-signal was detected in corneal cross-sections prepared from mice that received topical application of control GFP.

For data set [4], the system named is human lung carcinoma epithelial cells (A549). Nature of the data set: POD-GFP protein transduction in vitro, GFP-positive cells by FACS. The format is cell-based. As to conditions: A549, 10 μg protein, 2 hours. As to the method:
as §2, with “once. […]” for “once.”

The test system of data set [5] is HER cells. Nature of the data set: Toxicity during protein transduction, propidium iodide uptake. The format is cell-based, human. The conditions noted are these: HER cells incubated with protein. As to the method: as §2
Extent of toxicity to cells during protein transduction was measured by uptake of propidium iodide (PI).

For another data set, the system named is skin. The experiment in a line: Topical application of POD-GFP to shaved skin in vivo. On the set-up: species or system C57BL6/J mice. The conditions noted are these: 40 μg; for GFP-fluorescence in skin: 24 hours. As to the method: Adult mice were anesthetized as described above and the abdomen shaved to reveal a 2.25 cm^2 area of skin. A dose of 40 μg of protein was applied to the skin for 24 hours. Upon completion of the treatment, animals were sacrificed and the treated skin dissected and fixed overnight in 4% paraformaldehyde and transverse sections were obtained as described herein.
To extend these observations to other organ systems, the potential of transdermal delivery of POD-fusion protein was examined. POD-GFP (40 μg) or control OFF was topically applied to shaved skin of adult C57BL6/J mice. Animals were sacrificed 24 hours later and frozen sections of the treated region were examined by fluorescence microscopy.

With “CGGG(ARKKAAKA)4 (CGGGARKKAAKAARKKAAKAARKKAAKAARKKAAKA; The peptide was designed and synthesized) [C-POD]”, in the data set on E. coli, the “concentration giving almost complete inhibition of bacterial growth” value is 24.0 µM and the “concentration giving significant inhibition of bacterial growth” value worked out at 0.30 µM. In the data set with HER cells [1], this substance returned a GFP-positive cells of 49.13±2.23%.
For “GFP: His-tagged GFP control protein [reference compound]”, the “detection in retina by fluorescence microscopy” value (“detection in retina” below) is recorded as “not detected in retinal cells above background auto-fluorescence” in the data set on retina (intravitreal, 6.6 μg, 6 hours) and “barely discernible above background auto-fluorescence” in the data set with retina (subretinal, 8.5 μg, 6 hours). The GFP-positive cells amounted to 1.8±0.4% in the data set on HER cells [2] and 1.4±0.4% in data set [4]. The “localization of expressed protein” value in data set [3] was “relatively diffuse cytoplasmic and nuclear localization”. Moreover, in the data set with cornea, the “presence on outer surface of the eye” value is listed as “washed away”. For the same substance, the PI-positive cells with HER cells [5] is given as 3.2±2.7%. Further, the GFP-fluorescence in skin entry in the data set on skin is “Only minimal GFP-fluorescence”.
For “POD-GFP: His-tagged POD-GFP fusion protein”, in the data set on retina (intravitreal injection), the “binding to lens capsule” value is on record as “very strong affinity”. Moreover, the “detection in retina” value with retina (intravitreal, 6.6 μg, 6 hours) was “readily detected in ganglion cells”. Also, in the data set with retina (subretinal, 8.5 μg, 6 hours), the “detection in retina” value is reported as “abundantly present in the outer nuclear layer” and the “transduction of the ONL, share of the retinal surface” value was “up to 40%”. In the data set on HER cells [2] (HER cells), the “cellular localization of exogenously added protein” value was “colocalize in part with Lysotracker”. This substance returned a GFP-positive cells with HER cells [2] of 34.2±3.4%. In addition, in data set [3], the “localization of expressed protein” value was “relatively weak cytoplasmic and intense nuclear localization”. Moreover, the “presence on outer surface of the eye” value in the data set with cornea is on record as “detected on most of the ocular surface”. In data set [4], this substance had a GFP-positive cells of 35.3±0.9%. In the data set with HER cells [5], the PI-positive cells is listed as 2.8±3.8%. In addition, in the data set on skin, the “duration of binding to mouse skin” value is “at least 24 hours” and the GFP-fluorescence in skin result is “significantly GFP-positive”.
